From publication PMC9664868, “Dephospho-Coenzyme A Kinase Is an Exploitable Drug Target against Plasmodium falciparum: Identification of Selective Inhibitors by High-Throughput Screening of a Large Chemical Compound Library” (Antimicrobial Agents and Chemotherapy, 2022)
Like-named read-outs stand apart in the source and are kept apart here.

Tests used:
[1] = tested on: P. falciparum drug-sensitive 3D7 strain; assay: Erythrocytic-stage parasite growth inhibition, diaphorase-coupled LDH assay, 3D7; assay type: cell-based, Plasmodium falciparum; conditions: for Selectivity index IC50 (HepG2/3D7): HepG2 IC50 / 3D7 IC50
Experimental: (§1) Selected hit compounds were also tested against erythrocytic-stage parasites of P. falciparum drug-sensitive 3D7 and drug-resistant Dd2 strains ([39]). For the phenotypic assay, parasite cultures were synchronized with 5% (wt/vol) D-sorbitol as previously described ([40]). A synchronized culture containing ring-stage parasites of 0.3% parasitemia was initiated with a culture volume of 25 μL/well on a 384-well plate. A series of diluted compounds (at final concentrations of 50, 10, 2, 0.4, and 0.08 μM) were used to calculate IC50 values. Mefloquine at 50 μM and atovaquone at 20 μM were used as no-growth control (100% inhibition). After 72 h of incubation, parasite growth was measured by diaphorase-coupled lactate dehydrogenase (LDH) assay as previously described ([41]). Absorbance at 650 nm was measured using SpectraMax Paradigm multimode microplate reader (Molecular Devices, San Jose, CA, USA). The IC50 values were calculated as described above.

[2] = tested on: P. falciparum drug-resistant Dd2 strain; assay: Erythrocytic-stage parasite growth inhibition, diaphorase-coupled LDH assay, Dd2; assay type: cell-based, Plasmodium falciparum
Experimental: as §1

[3] = tested on: HepG2 cell line; assay: Cytotoxicity assay (Cell Counting Kit-8); assay type: cell-based, human
Experimental: Cytotoxicity against human cells was evaluated using the human liver carcinoma HepG2 cell line. HepG2 cells were cultured in D-MED supplemented with 4 mM L-glutamine and 10% fetal bovine serum (FBS) in a 75-cm^2 flask (Violamo) at 37°C. For the cytotoxicity assay, HepG2 cells in semiconfluent state were detached from the flask by incubating the cells with 5 mL D-MEM containing 0.25% trypsin-EDTA. After detachment, HepG2 cells were resuspended in D-MEM-supplemented L-glutamine and FBS, and cell viability was evaluated by incubating cells with 0.4% Trypan blue on a hemocytometer. An approximately 50-μL suspension containing 3,000 cells was dispensed into each well on a 384-well clear-bottom plate using a Multidrop Combi dispenser. Compounds dissolved in DMSO had been dispensed into wells to yield final concentrations of 100, 20, 4, 0.8, and 0.2 μM before cells were added. After cells were added to the plates, they were cultured at 37°C under 5% CO2. After 48 h cultivation, 5 μL of Cell Counting Kit-8 (Dojindo, Japan) was added, and the plates were further incubated for 2 h to assess cell growth and survival.

[4] = target: PfDPCK (Plasmodium falciparum, UniProt Q8IL34); assay: PfDPCK inhibition, enzyme-coupled fluorescence ADP detection assay (HTS and IC50 determination); assay type: biochemical
Experimental: High-throughput screening against recombinant PfDPCK was performed using the Drug Discovery Initiative (DDI) full library, available from The University of Tokyo, composed of approximately 210,000 compounds. The primary assay was performed on 1,536-well white plate format with a final volume of 2 μL/well, containing 10 μM test compounds using a Multidrop Combi reagent dispenser (Thermo Fisher Scientific, Waltham, MA). The reaction was conducted in the assay buffer described above with 100 μM ATP and 50 μM dephospho-CoA. The assay was carried out at room temperature for 4 h in a closed plastic container with wet tissues. The reaction was stopped, and produced ADP was quantified using an enzyme-coupled fluorescence ADP detection assay, using PHERAstar microplate reader (BMG Labtech, Offenburg, Germany) with excitation at 540 nm and emission at 590 nm, as previously described ([17]). The inhibition level was calculated as the percentage inhibition of DPCK activity with each compound compared to the activity with only dimethyl sulfoxide (DMSO) as control (no inhibition) and that with no enzyme as 100% inhibition. IC50 values of the hit compounds were determined under the same assay conditions for the screening: Z′ factor, signal-to-background ratio (S/B), signal-to-noise ratio (S/N), and coefficient of variation (CV) were calculated to estimate the quality of screening system as previously described ([18], [38]).
The primary hits were reassayed in quadruplicate (n = 4) as in the primary screening. We next tested the confirmed secondary hits to exclude false positives that inhibit coupled fluorescence assay, but not PfDPCK. After exclusion of false positives, all tertiary hits were tested against human HsCOASY in the counterassay to exclude compounds that inhibit both PfDPCK and HsCOASY. The compounds showing >10% inhibition against HsCOASY were excluded from further studies. The IC50 values of the hit compounds were determined under the same assay conditions described as above for the primary screening, with the serially diluted compounds at 20, 10, 2.5, 0.5, and 0.1 μM at final concentrations. The assay was conducted in quadruplicate for each dilution, and IC50 values were calculated using GraphPad Software (San Diego, California USA).

[5] = Homo sapiens, HepG2, 48 h, means ± SEMs, read-out: IC50 (μM) of: HepG2
[6] = recombinant enzyme, means ± SEMs, read-out: IC50 (μM) of: PfDPCK
[7] = Plasmodium falciparum, drug-sensitive 3D7, 72 h, means ± SEMs, read-out: IC50 (μM) of: Pf cell 3D7
[8] = Plasmodium falciparum, drug-resistant Dd2, 72 h, means ± SEMs, read-out: IC50 (μM) of: Pf cell Dd2
[9] = Homo sapiens, HepG2, ND (maximum concentration tested 100 μM), read-out: IC50 (μM) of: HepG2

Chain of PfDPCK (Q8IL34 entry or part of it): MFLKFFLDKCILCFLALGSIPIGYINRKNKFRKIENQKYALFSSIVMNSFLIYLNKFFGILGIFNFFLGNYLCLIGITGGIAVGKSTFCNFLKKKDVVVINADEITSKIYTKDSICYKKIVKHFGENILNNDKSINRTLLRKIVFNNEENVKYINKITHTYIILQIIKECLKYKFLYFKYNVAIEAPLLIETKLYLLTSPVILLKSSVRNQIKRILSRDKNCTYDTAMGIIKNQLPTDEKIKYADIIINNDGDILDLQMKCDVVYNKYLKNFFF

SMILES | IC50 [4, 6] [µM] | IC50 [1, 7] [nM] | IC50 [2, 8] [nM] | Selectivity index IC50 (HepG2/3D7) [1] | Selectivity index IC50 (HepG2/Dd2) [2] | IC50 [3, 5] [µM] | other results
O=C1C(O)=C([C@H]2CC[C@H](c3ccc(Cl)cc3)CC2)C(=O)c2ccccc21 [Atovaquone, reference compound] | – | – | – | 363,181 | 499,375 | 79.9 ± 1.79 | IC50 ([1]; Plasmodium falciparum, drug-sensitive 3D7, value in nM, read-out: IC50 of: Pf cell 3D7): 0.22 ± 0.03 nM; IC50 ([2]; Plasmodium falciparum, drug-resistant Dd2, value in nM, read-out: IC50 of: Pf cell Dd2): 0.16 ± 0.028 nM
CNc1nc(NC(C)(C)C)nc(NC(C)(C)C)n1 [Compound A-2] | 0.4 ± 0.07 | 4430 ± 40 | 980 ± 500 | >23 | >102 | > 100 | –
CCCn1c(C)cc(-c2csc(NC(=O)C3CC3)n2)c1C [Compound A-4] | 0.52 ± 0.09 | 4450 ± 50 | 1590 ± 230 | – | – | – | IC50 [3, 9]: > 100 µM
CCNC(=N)SCc1c(C)c(C)c(C)c(C)c1C [Compound A-7] | 1.09 ± 0.03 | 1100 ± 110 | 130 ± 10 | 8.2 | 69.5 | 9.04 ± 0.01 | –
CCOc1ccc(-n2cc(-c3ccccc3)c3c(NCCN(C)C)ncnc32)cc1 [Compound A-17] | – | – | – | – | – | – | IC50 ([4]; Table 2, PfDPCK inhibitor scaffolds Gr4, Gr5, Gr8, read-out: IC50): 2.15 ± 0.07 µM; IC50 ([1]; Plasmodium falciparum, 3D7, Table S1, means ± SEM, read-out: IC50 (μM) Pf cell 3D7): 22900 ± 1870 nM; IC50 ([2]; Plasmodium falciparum, DD2, Table S1, means ± SEM, read-out: IC50 (μM) Pf cell Dd2): 2700 ± 440 nM; IC50 ([3]; Homo sapiens, HepG2, Table S1, means ± SEM, read-out: IC50 (μM) HepG2): 8.45 ± 0.35 µM
Cc1cc(-c2csc(NC3CC3)n2)c(C)n1CCC1=CCCCC1 [Compound A-19] | 2.55 ± 0.03 | 3640 ± 40 | 2650 ± 130 | 22.4 | 30.8 | 81.5 | –
CCOC(=O)C1NC(c2ccc[n+](C)c2)C23c4c5c6c7c8c9c(c%10c%11c2c2c4c4c%12c5c5c6c6c8c8c%13c9c9c%10c%10c%11c%11c2c2c4c4c%12c%12c5c5c6c8c6c8c%13c9c9c%10c%10c%11c2c2c4c4c%12c5c6c5c8c9c%10c2c45)C713 (centres unmarked) [Compound A-22] | – | – | – | – | – | – | IC50 [4]: 3.25 ± 0.02 µM; IC50 ([1]; Plasmodium falciparum, 3D7, 72 h, read-out: IC50 (μM) of: Pf cell 3D7): 30600 ± 1500 nM; IC50 ([2]; Plasmodium falciparum, DD2, 72 h, read-out: IC50 (μM) of: Pf cell Dd2): 6320 ± 350 nM; IC50 ([3]; Homo sapiens, HepG2, read-out: IC50 (μM) of: HepG2): > 100 µM
CCOC(=O)CN1C(C(=O)OCC)C23c4c5c6c7c8c9c(c%10c%11c2c2c4c4c%12c5c5c6c6c8c8c%13c9c9c%10c%10c%11c%11c2c2c4c4c%12c%12c5c5c6c8c6c8c%13c9c9c%10c%10c%11c2c2c4c4c%12c5c6c5c8c9c%10c2c45)C73C1c1cc[n+](C)cc1 (centres unmarked) [Compound A-23] | – | – | – | – | – | – | IC50 [4]: 3.31 ± 0.02 µM; IC50 ([1]; drug-sensitive 3D7, 72 h, means ± SEMs, read-out: IC50 (μM) of: Pf cell 3D7): 4470 ± 120 nM; IC50 ([2]; drug-resistant Dd2, 72 h, means ± SEMs, read-out: IC50 (μM) of: Pf cell Dd2): 7420 ± 460 nM; IC50 ([3]; ND (maximum concentration tested 100 μM), read-out: IC50 (μM) of: HepG2): > 100 µM

Second part, led by results:

IC50 [4, 6] [µM] | IC50 [1, 7] [nM] | IC50 [2, 8] [nM] | SMILES | Selectivity index IC50 (HepG2/3D7) [1] | Selectivity index IC50 (HepG2/Dd2) [2] | IC50 [3, 5] [µM] | other results
1.69 ± 0.05 | 1300 ± 60 | 3400 ± 350 | Nc1nc(Nc2cccc(F)c2)nc2ccccc12 [Compound A-13] | – | – | – | IC50 [3, 9]: > 100 µM
2.09 ± 0.04 | 2210 ± 70 | 230 ± 10 | Cc1ccc(S(=O)(=O)Nc2cc(Cl)c(O)c3ccccc23)c(C)c1 [Compound A-16] | 17.9 | 171.7 | 39.6 ± 2.3 | –
3.45 ± 0.07 | 1640 ± 30 | > 50000 | Cc1cc(Nc2cc3ccccc3cc2O)n2ncnc2n1 [Compound A-25] | – | – | – | IC50 [3, 9]: > 100 µM
